In ChEMBL document CHEMBL1157905, “Synthesis and antibacterial activities of a novel alkylide: 3-O-(3-aryl-2-propargyl) and 3-O-(3-aryl-2-propenyl)clarithromycin derivatives” (2010):
≈ marks a conversion by molar mass, not a printed value.

Experiments:
Type in all cases: functional
Staphylococcus aureus [1] = experiment: Antimicrobial activity against erythromycin-susceptible Staphylococcus aureus PU19 encoded by erm(A) gene
Staphylococcus aureus [2] = experiment: Antimicrobial activity against erythromycin-susceptible Staphylococcus aureus PU32 encoded by erm(A) gene
Streptococcus pneumoniae [3] = experiment: Antimicrobial activity against erythromycin-susceptible Streptococcus pneumoniae ATCC 49619
Streptococcus pneumoniae [4] = experiment: Antimicrobial activity against erythromycin-resistant Streptococcus pneumoniae PU11 encoded by erm and mef gene
Streptococcus pneumoniae [5] = experiment: Antimicrobial activity against erythromycin-resistant Streptococcus pneumoniae PU13 encoded by erm and mef gene
Staphylococcus aureus [6] = experiment: Antimicrobial activity against erythromycin-susceptible Staphylococcus aureus ATCC 29213

| Compound | MIC (Staphylococcus aureus [1]) | MIC (Staphylococcus aureus [2]) | MIC (Streptococcus pneumoniae [3]) | MIC (Streptococcus pneumoniae [4]) | MIC (Streptococcus pneumoniae [5]) | MIC (Staphylococcus aureus [6]) |
| --- | --- | --- | --- | --- | --- | --- |
| CC[C@H]1OC(=O)[C@H](C)[C@@H](OC/C=C/c2cncc3ccccc23)[C@H](C)[C@@H](O[C@@H]2O[C@H](C)C[C@H](N(C)C)[C@H]2O)[C@](C)(OC)C[C@@H](C)/C(=N\OCc2ccccc2Cl)[C@H](C)[C@H]2OC(=O)O[C@@]21C | 64 µg/mL (≈ 69.4 µM) | 64 µg/mL (≈ 69.4 µM) | 4 µg/mL (≈ 4.34 µM) | 32 µg/mL (≈ 34.7 µM) | 32 µg/mL (≈ 34.7 µM) | 64 µg/mL (≈ 69.4 µM) |
| CC[C@H]1OC(=O)[C@H](C)[C@@H](O[C@H]2C[C@@](C)(OC)[C@@H](O)[C@H](C)O2)[C@H](C)[C@@H](O[C@@H]2O[C@H](C)C[C@H](N(C)C)[C@H]2O)[C@](C)(OC)C[C@@H](C)C(=O)[C@H](C)[C@@H](O)[C@]1(C)O [CLARITHROMYCIN] | > 256 µg/mL | 128 µg/mL (≈ 171 µM) | 0.032 µg/mL (≈ 0.0428 µM) | 128 µg/mL (≈ 171 µM) | 128 µg/mL (≈ 171 µM) | 0.5 µg/mL (≈ 0.668 µM) |
| CC[C@H]1OC(=O)[C@H](C)[C@@H](O/C=C\Cc2cncc3ccccc23)[C@H](C)[C@@H](O[C@@H]2O[C@H](C)C[C@H](N(C)C)[C@H]2O)[C@](C)(OC)C[C@@H](C)/C(=N\OCc2ccccc2Cl)[C@H](C)[C@H]2OC(=O)O[C@@]21C | 64 µg/mL (≈ 69.4 µM) | 32 µg/mL (≈ 34.7 µM) | 0.25 µg/mL (≈ 0.271 µM) | 32 µg/mL (≈ 34.7 µM) | 32 µg/mL (≈ 34.7 µM) | 8 µg/mL (≈ 8.67 µM) |
| CC[C@H]1OC(=O)[C@H](C)[C@@H](O[C@H]2C[C@@](C)(OC)[C@@H](O)[C@H](C)O2)[C@H](C)[C@@H](O[C@@H]2O[C@H](C)C[C@H](N(C)C)[C@H]2O)[C@](C)(O)C[C@@H](C)CN(C)[C@H](C)[C@@H](O)[C@]1(C)O [AZITHROMYCIN] | > 256 µg/mL | 64 µg/mL (≈ 85.4 µM) | 0.064 µg/mL (≈ 0.0854 µM) | 128 µg/mL (≈ 171 µM) | 128 µg/mL (≈ 171 µM) | 0.5 µg/mL (≈ 0.668 µM) |
